The source of these data is publication PMC12344264, “Mechanistic, in-silico and in vitro studies with nitrofurans reveal potent leishmanicidal activity and inhibition of trypanothione reductase” (International Journal for Parasitology: Drugs and Drug …, 2025).

For test [1], the system named is L. donovani-iRFP axenic amastigotes. Put plainly: Antileishmanial effect on axenic amastigotes (iRFP fluorescence viability, 72 h). Type of test: cell-based. Conditions: Leishmania donovani. The method, then: (§1) For efficacy studies, L. donovani-iRFP, a genetically modified strain of L. donovani LV9 constitutively expressing the gene encoding the infrared fluorescent protein (iRFP) ([Melcón-Fernández et al., 2023]), was used. This strain was grown as promastigotes in Schneider's insect medium (Sigma-Aldrich, Merck, Darmstadt, Germany) supplemented with 20 % (v/v) foetal bovine serum (FBS) (Gibco, ThermoFisher Scientific, Waltham, MA, USA) and […] antibiotic cocktail (100 U/mL penicillin and 100 μg/mL streptomycin) (Hyclone, ThermoFisher Scientific, Waltham, MA, USA) at 26 °C until mice were infected ([Carballeira et al., 2016]). Axenic and intramacrophage amastigotes were isolated from six-to eight-week-old female Balb/c mice (see below) that had been infected intraperitoneally with 1.5 × 10^9 metacyclic L. donovani-iRFP promastigotes. To obtain axenic amastigotes, bone marrow was extracted from the femur and tibia of 8- to 10-week-old infected mice and passed through a 100 μm cell strainer. After centrifugation at 3500 rcf for 10 min at room temperature, cell suspensions were resuspended in medium containing 15 mM KCl; 136 mM KH2PO4; 10 mM K2HPO4.3H2O; 0.5 mM MgSO4.7H2O; 24 mM NaHCO3; 22 mM glucose; 1 mM glutamine, 1 × RPMI 1640 vitamin mix (Sigma-Aldrich, Merck, Darmstadt, Germany), 10 mM folic acid, 100 mM adenosine, 1 × RPMI amino acid mix (Sigma-Aldrich, Merck, Darmstadt, Germany), 5 mg/mL hemin, 25 mM 2-morpholinoethanesulfonic acid (MES) pH 5.6, supplemented with 10 % FBS (Gibco, ThermoFisher Scientific, Waltham, MA, USA) and antibiotic cocktail, and incubated at 37 °C and 5 % CO2. To obtain intramacrophage amastigotes, spleens from infected Balb/c mice were cut into pieces, ground with 2 mg/mL collagenase D (Merck, Darmstadt, Germany) and passed through a 100 μm cell strainer. The splenocyte-enriched cell suspension containing intramacrophage amastigotes was resuspended in RPMI medium (Gibco, Fisher Scientific International Inc., Pittsburgh, PA, USA) supplemented with 20 % FBS, 1 mM sodium pyruvate, 24 mM NaHCO3, 2 mM L-glutamine, 1 × RPMI vitamins, 25 mM HEPES pH 7.2 and antibiotic cocktail ([Ashok et al., 2016]).
(§2) The antileishmanial effect of the nitrofurans selected in this study was tested both in vitro on axenic L. donovani-iRFP amastigotes and ex vivo on intramacrophage amastigotes according to previously published methods ([Melcón-Fernández et al., 2023], [2024]; [Andrés-Rodríguez et al., 2024]). Assays were performed in a final volume of […] containing 20,000 axenic amastigotes or a number of L. donovani-iRFP-infected murine splenocytes representing 150,000 relative fluorescence units (RFU), in each well of a black 384-well microtiter plate with optical bottom. In addition, 40 μL of one-half serial dilutions of each compound in amastigotes culture medium (for axenic amastigotes) or in supplemented RPMI medium (for intramacrophage amastigotes) were added to each well. Positive (amphotericin B at a final concentration of 18 μM) and negative (0.1 % v/v DMSO) controls were included on each plate. The plates were incubated at 37 °C and 5 % CO2 for a maximum of 72 h. Fluorescence emitted by viable L. donovani-iRFP was measured on an Odyssey infrared imaging system (Li-Cor, NE, USA).
(§3) All experiments were carried out in triplicate and included at least three technical replicates. […] The SI was calculated from the CC50/EC50 ratio.

The test system of test [2] is L. donovani-iRFP intramacrophage amastigotes. Put plainly: Ex vivo antileishmanial effect on intramacrophage amastigotes (infected murine splenocytes, iRFP fluorescence, 72 h). It is filed as cell-based. The note with it: Leishmania donovani, Splenocyte. The method, then:
as §1, §2, §3

Test [3] concerns the target T1, L. donovani TryR (Leishmania donovani, UniProt P39050).
T1 construct: endogenous in cells; host or cells: L. donovani-iRFP (LV9) axenic amastigotes, crude cell extract
Put plainly: biochemical. The note with it: for Type of inhibition: Lineweaver-Burk double reciprocal plot, varying T[S]2. The method, then: The activity of L. donovani TryR was measured in the presence of different concentrations of nitrofurans according to the protocol previously described ([Melcón-Fernández et al., 2023]). Briefly, 1 × 10^10 L. donovani-iRFP axenic amastigotes were washed twice in PBS and lysed with a solution containing 1 mM EDTA, 40 mM HEPES, 50 mM Tris HCl pH 7.5, 2 % (v/v) Triton X-100 and Pierce™ Protease Inhibitors Mini Tablets (ThermoFisher Scientific, Waltham, MA, USA). Cell extracts were prepared by mechanical disruption of the cells with 0.5 mm diameter glass beads (Merck, Darmstadt, Germany) and the supernatant obtained by centrifugation at 10,000 rcf for 5 min at 4 °C was used to measure TryR activity in 96-well plates. […] Cell extracts diluted in Tris HCl pH 7.5 (0.43 μg of total protein in 50 μL) were added to launch the reaction. The negative control consisted of 2.5 % DMSO, whereas the blank reaction included the TryR assay solution without T [S]2. […] To determine steady-state conditions, enzymatic activity was measured at 412 nm (ε = 14,150 M^−1 cm^−1) for a period of up to 120 min (with 5 min intervals) at 26 °C in a Varioskan Lux spectrophotometer (ThermoFisher Scientific, Waltham, MA, USA). The experiment was carried out in triplicate and included three technical replicates.

The mark [4] stands for this setting: T[S]2 25-150 μM, inhibitor 6.25-100 μM, NADPH 0.20 mM, read-out: Ki.

Like-named read-outs stand apart in the source and are kept apart here.

T1 sequence (P39050 whole entry): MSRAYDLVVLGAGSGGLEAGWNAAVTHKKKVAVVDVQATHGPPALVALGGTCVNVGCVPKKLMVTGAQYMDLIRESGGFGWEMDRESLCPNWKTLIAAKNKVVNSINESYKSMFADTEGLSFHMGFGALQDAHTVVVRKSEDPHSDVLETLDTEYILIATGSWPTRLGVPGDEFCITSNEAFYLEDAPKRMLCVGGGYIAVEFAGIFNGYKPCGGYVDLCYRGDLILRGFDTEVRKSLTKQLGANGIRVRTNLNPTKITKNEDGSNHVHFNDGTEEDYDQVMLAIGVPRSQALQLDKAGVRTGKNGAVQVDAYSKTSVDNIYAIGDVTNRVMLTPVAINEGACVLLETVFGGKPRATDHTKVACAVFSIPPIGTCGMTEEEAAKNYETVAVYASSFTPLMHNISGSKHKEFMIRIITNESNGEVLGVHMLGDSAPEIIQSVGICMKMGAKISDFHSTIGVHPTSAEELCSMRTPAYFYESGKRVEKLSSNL

On to `N#Cc1ccc([N+](=O)[O-])o1` [5-nitro-2-furonitrile, 5-Nitro-2-furonitrile], for which the EC50 in test [1] stood at 700 ± 50 nM; in test [2], 1450 ± 110 nM. Moreover, the Type of inhibition result in test [3] was “Competitive”. Besides, the inhibition constant (Ki) in test [3] (setting [4]) came out at 24800 ± 1430 nM.

As to `O=C1CN(/N=C/c2ccc([N+](=O)[O-])o2)C(=O)N1` [Nitrofurantoin], the EC50 stood at 1460 ± 80 nM in test [1] and 2100 ± 260 nM in test [2]. In test [3], the affinity corresponds to a Ki of 31200 ± 4940 nM. In test [3], the Type of inhibition entry is reported as “Uncompetitive”.

For `NC(=O)N/N=C/c1ccc([N+](=O)[O-])o1` [Nitrofurazone], the EC50 in test [1] was found to be 490 ± 30 nM; in test [2], 490 ± 110 nM. Further, the Type of inhibition entry in test [3] is recorded as “Uncompetitive”. Further, in test [3] (setting [4]), the Ki was determined as 25800 ± 4830 nM.

For the compound `O=C1NN(c2ccc(F)c(Cl)c2)C(=O)C1=Cc1ccc([N+](=O)[O-])o1` [PYZD-4409, 1-(3-chloro-4-fluorophenyl)-4-[(5-nitro-2-furyl)methylene]-3,5-pyrazolidinedione], the EC50 was 1270 ± 40 nM in test [1] and > 100000 nM in test [2]. For the same compound, the Type of inhibition result in test [3] is recorded as “Competitive”. Besides, the Ki in test [3] (setting [4]) is 7630 ± 2560 nM.

In general, EC50 refers to the concentration needed to bring the measured effect to its halfway point. What is called Ki is a measure of affinity in units of concentration, obtained from inhibition or displacement.
